Data as given in US6610689B2, “HIV protease inhibitors based on amino acid derivatives” (priority 2001, dated 2003).
Counter-ions that a name gives are not always drawn. Like-named read-outs stand apart in the source and are kept apart here.

Target: T1, HIV protease (Human immunodeficiency virus type 1 group M subtype B, UniProt P04585)
T1 construct: A third viral enzyme known as protease then cleaves the polyproteins
Experiment: Enzymatic Assay for Determining the Inhibition Constant (Ki) of Synthetic Compounds Targeting the HIV Protease (fluorometric FRET assay)
Assay type: biochemical
Source text: Enzymatic Assay for Determining the Inhibition Constant (Ki) of Synthetic Compounds Targeting the HIV Protease
This is a fluorometric assay based on the cleavage by protease of a substrate carrying a donor group (EDANS) and an acceptor group (DABCYL) on each side of the cleavage site, interacting together through fluorescence resonance energy transfer (FRET) as described by Matayoshi et al. (Science 247:[…], 1990).
After calculation of Vo and Vi, the inhibition constant (Ki) of the compound is determined using the equation of Henderson: [formula]
where Vo=the enzyme's initial velocity
Vi=the enzyme velocity in the presence of the inhibitory compound,
[I]=inhlibitor concentration, [S]=substrate concentration,
Km=Michaelis-Menten constant and Kiapp=apparent Ki
Graphs are traced and the Ki determined using GraphPad Prism software v. 3.0.

[1] = Table 1, compounds of formula I, read-out: Ki (anti-protease activity)

## Cc1ccc(S(=O)(=O)N[C@@H](CC(N)=O)C(=O)NCCCC[C@@H](C(=O)O)N(CC(C)C)S(=O)(=O)c2ccc(C)cc2)cc1 [Example 61, Nα-Isobutyl-Nα-(4-methylbenzenesulfonyl)-Nε-[N′α-(4-methylbenzenesulfonyl)-L-asparagyl]-L-lysine]
  Ki: 296 nM

## Cc1ccc(S(=O)(=O)N(CC(C)C)[C@@H](CCCCNC(=O)[C@H](Cc2c[nH]c3ccccc23)NC(=O)CCc2ccccc2)C(=O)O)cc1 [Example 133, Nα-Isobutyl-Nα-(4-methylbenzenesulfonyl)-Nε-(N′α-dihydrocinnamoyl-L-tryptophanyl)-L-lysine]
  Ki: 0.606 nM

## Cc1ccc(S(=O)(=O)N(CC(C)C)[C@H](CO)CCCCNC(=O)[C@H](Cc2ccccn2)NC(=O)OC(C)(C)C)cc1 [Example 134, (2S,2′S) 2-N-Isobutyl-2-N-(4-methylbenzenesulfonyl)-6-N-(N′α-tert-butoxycarbonyl-S-2-pyridylalanyl)-2,6-diaminohexanol]
  Ki: 30 nM

## Cc1ccc(S(=O)(=O)N[C@@H](CCC(=O)O)C(=O)NCCCC[C@@H](C(=O)O)N(CC(C)C)S(=O)(=O)c2ccc(C)cc2)cc1 [Example 38, Nα-Isobutyl-Nα-(4-methylbenzenesulfonyl)-Nε-[N′α-(4-methylbenzenesulfonyl)-L-glutamyl]-L-lysine]
  Ki: 220 nM

## Cc1ccc(S(=O)(=O)N(CC(C)C)[C@@H](CCCCNC(=O)[C@H](Cc2ccccc2)NC(=O)c2ccccc2)C(=O)O)cc1 [Example 50, Nα-Isobutyl-Nα-(4-methylbenzenesulfonyl)-Nε-(N′α-benzoyl-L-phenylalanyl)-L-lysine]
  Ki: 2 nM

## Cc1ccc(S(=O)(=O)N[C@@H](CC(=O)O)C(=O)NCCCC[C@@H](C(=O)O)N(CC(C)C)S(=O)(=O)c2ccc(C)cc2)cc1 [Example 41, Nα-Isobutyl-Nα-(4-methylbenzenesulfonyl)-Nε-[N′α-(4-methylbenzenesulfonyl)-L-aspartyl]-L-lysine]
  Ki: 172 nM

## Cc1ccc(S(=O)(=O)N(CC(C)C)[C@@H](CCCCNC(=O)CNc2ccncc2)C(=O)O)cc1 [Example 112, Nα-Isobutyl-Nα-(4-methylbenzenesulfonyl)-Nε-[N′α-(4-pyridyl)glycyl]-L-lysine]
[1]
  Ki: > 300 nM

## CC(=O)Nc1ccc(S(=O)(=O)N[C@@H](Cc2ccccc2)C(=O)NCCCC[C@@H](CO)N(CC(C)C)S(=O)(=O)c2ccc(C)cc2)cc1 [Example 121, (2S,2′S) 2-N-Isobutyl-2-N-(4-methylbenzenesulfonyl)-6-N-[N′α-(4-acetylaminobenzenesulfonyl)-S-phenylalanyl]-2,6-diaminohexanol]
  Ki: 23 nM

## Cc1ccc(S(=O)(=O)N(CC(C)C)[C@@H](CCCCNC(=O)CN(C)c2ccccc2)C(=O)O)cc1 [Example 115, Nα-Isobutyl-Nα-(4-methylbenzenesulfonyl)-Nε-(N′α-methyl-N′α-phenylglycyl)-L-lysine]
[1]
  Ki: 12 nM

## Cc1ccc(S(=O)(=O)N(CC(C)C)[C@@H](CCCCNC(=O)[C@H](Cc2ccccc2)NC(=O)N2CCCC2)C(=O)O)cc1 [Example 197, Nα-Isobutyl-Nα-(4-methylbenzenesulfonyl)-Nε-(N′α-pyrrolidinecarbonyl-L-phenylalanyl)-L-lysine]
  Ki: 1.7 nM

## COc1ccc(S(=O)(=O)N(CC(C)C)[C@H](CO)CCCCNC(=O)[C@@H](N)Cc2c[nH]c3ccccc23)cc1 [Example 146, (2S,2′S) 2-N-Isobutyl-2-N-(4-methoxybenzenesullfonyl)-6-N-(S-tryptophanyl)-2,6-diaminohexanol Trifluoroacetic Acid Salt]
[1]
  Ki: 15 nM

## COc1ccc(S(=O)(=O)N(CC2CCCC2)[C@H](CO)CCCCNC(=O)[C@@H](N)Cc2c[nH]c3ccccc23)cc1 [Example 152, (2S,2′S) 2-N-Cyclopentylmethyl-2-N-(4-methoxybenzenesulfonyl)-6-N-(S-tryptophanyl)-2,6-diaminohexanol Trifluoroacetic Acid Salt]
[1]
  Ki: 12 nM

## Cc1ccc(S(=O)(=O)N(CC(C)C)[C@H](CO)CCCCNC(=O)[C@H](Cc2c[nH]c3ccccc23)NS(=O)(=O)c2ccccc2)cc1 [Example 128, (2S,2′S) 2-N-Isobutyl-2-N-(4-methylbenzenesuilfonyl)-6-N-(N′α-benzenesulfonyi-S-tryptophanyl)-2,6-diaminohexanol]
[1]
  Ki: 0.95 nM

## CC(C)CN([C@H](CO)CCCCNC(=O)[C@H](Cc1c[nH]c2ccccc12)NS(=O)(=O)c1cccs1)S(=O)(=O)c1ccc(N)cc1 [Example 166, (2S,2′S) 2-N-(4-Aminobenzenesulfonyl)-2-N-isobutyl-6-N-[N′α-(2-thiophenesulfonyl)-S-tryptophanyl]-2,6-diaminohexanol]
  Ki: 1 nM

## COc1ccc(NC(=O)N[C@@H](Cc2ccccc2)C(=O)NCCCC[C@@H](C(=O)O)N(CC(C)C)S(=O)(=O)c2ccc(C)cc2)cc1 [Example 196, Nα-Isobutyl-Nα-(4-methylbenzenesulfonyl)-Nε-[N′α-(4-methoxyanilinecarbonyl)-L-phenylalanyl]-L-lysine]
  Ki: 0.5 nM

## Cc1ccc(CSC[C@H](NC(=O)OC(C)(C)C)C(=O)NCCCC[C@@H](C(=O)O)N(CC(C)C)S(=O)(=O)c2ccc(C)cc2)cc1 [Example 83, Nα-Isobutyl-Nα-(4-methylbenzenesulfonyl)-Nε-[N′α-tert-butoxycarbonyl-S-(4-methylbenzyl)-L-cysteinyl]-L-lysine]
Anti-protease activity of Ne-amino acid substituted L-lysine derivatives and analogs of formula I, read-out: Ki
  Ki: 62 nM

## (2S,2′S) 2-N-Isobutyl-2-N-(4-methylbenzenesulfonyl)-6-N-(N′α-tert-butoxycarbonyl-S-4-thiazolylalanyl)-2,6-diaminohexanol [Example 137]
[1]
  Ki: 96 nM

## CC(C)CN(CC(=O)NCCCC[C@@H](CO)N(CC(C)C)S(=O)(=O)c1ccc(N)cc1)c1ccccc1 [Example 181, (2S) 2-N-(4-Aminobenzenesulfonyl)-2-N-isobutyl-6-N-(N′α-isobutyl-N′α-phenylglycyl)-2,6-diaminohexanol]
[1]
  Ki: 16 nM

## Cc1ccc(S(=O)(=O)N[C@@H](Cc2c[nH]c3ccccc23)C(=O)NCCCC[C@@H](CO)N(CC(C)C)S(=O)(=O)c2ccc(N)cc2)cc1 [Example 145, (2S,2′S) 2-N-(4-Aminobenzenesulfonyl)-2-N-isobutyl-6-N-[N′α-(4-methylbenzenesulfonyl)-S-tryptophanyl]-2,6-diaminohexanol]
  Ki: 1.9 nM

## Cc1ccc(S(=O)(=O)N(CC(C)C)[C@@H](CCCCNC(=O)CNc2cccnc2)C(=O)O)cc1 [Example 106, Nα-Isobutyl-Nα-(4-methylbenzenesulfonyl)-Nε-[N′α-(3-pyridyl)glycyl]-L-lysine]
  Ki: > 300 nM

## CC(C)CN([C@H](CO)CCCCNC(=O)[C@H](Cc1c[nH]c2ccccc12)NC(=O)N1CCOCC1)S(=O)(=O)c1ccc(N)cc1 [Example 170, (2S,2′S) 2-N-(4-Aminobenzenesulfonyl)-2-N-isobutyl-6-N-[N′α-(4-morpholinecarbonyl)-S-tryptophanyl]-2,6-diaminohexanol]
[1]
  Ki: 1.1 nM

## Cc1ccc(S(=O)(=O)N(CC(C)C)[C@@H](CCCCNC(=O)[C@H](Cc2ccccc2)NC(=O)C(F)(F)F)C(=O)O)cc1 [Example 101, Nα-Isobutyl-Nα-(4-methylbenzenesulfonyl)-Nε-(N′α-trifluoroacetyl-L-phenylalanyl)-L-lysine]
  Ki: 2.9 nM

## CC(C)CN(C(CO)CCCCNC(=O)C(Cc1c[nH]c2ccccc12)NC(=O)c1ccccc1)S(=O)(=O)c1ccc(N)cc1 [Example 186, (2S,2′S) 2-N-(4-Aminobenzenesulfonyl)-2-N-isobutyl-6-N-(N′α-benzoyl-S-tryptophanyl)-2,6-diaminohexanol]
  Ki: 1.7 nM
